Test results taken from PubChem BioAssay (NCI).
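Step 1: Grow cells in 96-well plates. Step 2: Expose to compound for 48 hours at 5 concentrations. Step 3: Interpolate endpoints linearly; if unreached, use highest concentration. The concentration for full growth arrest is given as TGI.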

Key:
Assay in all cases: NCI anticancer screen, dose series, 48 h
HCT-15 colon = system: HCT-15 colon
HOP-92 NSCLC = system: HOP-92 NSCLC
M19-MEL melanoma = system: M19-MEL melanoma
SNB-78 CNS = system: SNB-78 CNS
HT29 colon = system: HT29 colon
786-0 renal = system: 786-0 renal
HL-60(TB) leukemia = system: HL-60(TB) leukemia
SF-268 CNS = system: SF-268 CNS
SF-295 CNS = system: SF-295 CNS
K-562 leukemia = system: K-562 leukemia
SK-MEL-28 melanoma = system: SK-MEL-28 melanoma
OVCAR-8 ovarian = system: OVCAR-8 ovarian
OVCAR-4 ovarian = system: OVCAR-4 ovarian
RPMI-8226 leukemia = system: RPMI-8226 leukemia
SNB-19 CNS = system: SNB-19 CNS
DLD-1 colon = system: DLD-1 colon
NCI-H522 lung = system: NCI-H522 lung
A549 NSCLC = system: A549 NSCLC
IGROV1 ovarian = system: IGROV1 ovarian
HOP-62 NSCLC = system: HOP-62 NSCLC
SNB-75 CNS = system: SNB-75 CNS
ACHN renal = system: ACHN renal
SN12C renal = system: SN12C renal
SF-539 CNS = system: SF-539 CNS
CCRF-CEM leukemia = system: CCRF-CEM leukemia
LOX IMVI melanoma = system: LOX IMVI melanoma
SK-OV-3 ovarian = system: SK-OV-3 ovarian
SK-MEL-2 melanoma = system: SK-MEL-2 melanoma
UO-31 renal = system: UO-31 renal
HCT-116 colon = system: HCT-116 colon
DMS 273 small cell lung = system: DMS 273 small cell lung
UACC-62 melanoma = system: UACC-62 melanoma
KM12 colon = system: KM12 colon
TK-10 renal = system: TK-10 renal
NCI-H226 lung = system: NCI-H226 lung
SR leukemia = system: SR leukemia
OVCAR-3 ovarian = system: OVCAR-3 ovarian
NCI-H23 lung = system: NCI-H23 lung
EKVX NSCLC = system: EKVX NSCLC
OVCAR-5 ovarian = system: OVCAR-5 ovarian
CAKI-1 renal = system: CAKI-1 renal
A498 renal = system: A498 renal
MOLT-4 leukemia = system: MOLT-4 leukemia
M14 melanoma = system: M14 melanoma
DMS 114 small cell lung = system: DMS 114 small cell lung
XF 498 CNS = system: XF 498 CNS
MALME-3M melanoma = system: MALME-3M melanoma
RXF 393 renal = system: RXF 393 renal
KM20L2 colon = system: KM20L2 colon
UACC-257 melanoma = system: UACC-257 melanoma
HOP-18 NSCLC = system: HOP-18 NSCLC
HCC-2998 colon = system: HCC-2998 colon
U251 CNS = system: U251 CNS
LXFL 529 NSCLC = system: LXFL 529 NSCLC
SK-MEL-5 melanoma = system: SK-MEL-5 melanoma
RXF-631 renal = system: RXF-631 renal
COLO 205 colon = system: COLO 205 colon
NCI-H460 lung = system: NCI-H460 lung

## C/C(CC(=O)Nc1cccc(C)c1C)=N\NC(N)=S
HCT-15 colon
  TGI: > 100 µM
HOP-92 NSCLC
  TGI: > 100 µM
M19-MEL melanoma
  TGI: > 100 µM
SNB-78 CNS
  TGI: > 100 µM
HT29 colon
  TGI: > 100 µM
786-0 renal
  TGI: > 100 µM
HL-60(TB) leukemia
  TGI: > 100 µM
SF-268 CNS
  TGI: > 100 µM
SF-295 CNS
  TGI: > 100 µM
K-562 leukemia
  TGI: > 100 µM
SK-MEL-28 melanoma
  TGI: > 100 µM
OVCAR-8 ovarian
  TGI: > 100 µM
OVCAR-4 ovarian
  TGI: > 100 µM
RPMI-8226 leukemia
  TGI: > 100 µM
SNB-19 CNS
  TGI: > 100 µM
DLD-1 colon
  TGI: > 100 µM
NCI-H522 lung
  TGI: > 100 µM
A549 NSCLC
  TGI: > 100 µM
IGROV1 ovarian
  TGI: > 100 µM
HOP-62 NSCLC
  TGI: > 100 µM
SNB-75 CNS
  TGI: > 100 µM
ACHN renal
  TGI: > 100 µM
SN12C renal
  TGI: > 100 µM
SF-539 CNS
  TGI: > 100 µM
CCRF-CEM leukemia
  TGI: > 100 µM
LOX IMVI melanoma
  TGI: > 100 µM
SK-OV-3 ovarian
  TGI: > 100 µM
SK-MEL-2 melanoma
  TGI: > 100 µM
UO-31 renal
  TGI: > 100 µM
HCT-116 colon
  TGI: > 100 µM
DMS 273 small cell lung
  TGI: > 100 µM
UACC-62 melanoma
  TGI: > 100 µM
KM12 colon
  TGI: > 100 µM
TK-10 renal
  TGI: > 100 µM
NCI-H226 lung
  TGI: > 100 µM
SR leukemia
  TGI: 56.5 µM
OVCAR-3 ovarian
  TGI: > 100 µM
NCI-H23 lung
  TGI: > 100 µM
EKVX NSCLC
  TGI: > 100 µM
OVCAR-5 ovarian
  TGI: > 100 µM
CAKI-1 renal
  TGI: > 100 µM
A498 renal
  TGI: > 100 µM
MOLT-4 leukemia
  TGI: > 100 µM
M14 melanoma
  TGI: > 100 µM
DMS 114 small cell lung
  TGI: > 100 µM
XF 498 CNS
  TGI: > 100 µM
MALME-3M melanoma
  TGI: > 100 µM
RXF 393 renal
  TGI: > 100 µM
KM20L2 colon
  TGI: > 100 µM
UACC-257 melanoma
  TGI: > 100 µM
HOP-18 NSCLC
  TGI: > 100 µM
HCC-2998 colon
  TGI: > 100 µM
U251 CNS
  TGI: > 100 µM
LXFL 529 NSCLC
  TGI: > 100 µM
SK-MEL-5 melanoma
  TGI: > 100 µM
RXF-631 renal
  TGI: > 100 µM
COLO 205 colon
  TGI: > 100 µM
NCI-H460 lung
  TGI: > 100 µM
